Where “and” joins values, the source holds several entries; their conditions need not be identical. Identical values can stand only once. Entries after “also recorded” stand apart in the source; their conditions may differ.
Experiments:
[1] = system: ILA1 CTL; experiment: pMHCI tetramer staining of ILA1 CTL clone after PKI pre-treatment (flow cytometry); assay type: cell-based, human; settings: for enhancement of tetramer staining after PKI pre-incubation: ILA1 CTL, data not shown
[2] = system: tetramer-positive CD3+CD8+ T-cells; assay type: cell-based, human
Description: . It is known that pMHCI tetramer-induced signaling can trigger cell death (Purbhoo et al., 2001; Xu et al., 2001; Guillaume et al., 2003; Cebecauer et al., 2005). Cell death induced by tetramer staining was assessed using the amine-reactive viability dye GrViD at the end of the staining procedure, which is spectrally distinct from ViViD. PBMC were stained with ViViD to identify and allow exclusion of dead and dying cells prior to the addition of pMHCI tetramer; GrVID staining was performed after pMHCI tetramer and surface antibody staining. Data were acquired on a BD LSR II flow cytometer and analyzed using FlowJo software. ViViD^±, CD14^+ and CD19^+ cells were excluded from the analysis and the frequency of GrViD-positive cells was assessed in the tetramer-positive CD3+CD8^+ T-cell populations. Representative flow profiles are shown here for CD^+T-cells specific for the HLA A2-restricted epitopes CMV pp65495-503 ([…](SEQ ID NO:3)) and EBV BMLFI259-267 ([…] SEQ ID NO:4)). […]. […] Stained PBMC were acquired on a BD LSR II (Becton Dickinson Immunocytometry Systems, San Jose, Calif., USA) and analyzed using FlowJo software (Tree Star, Inc., Ashland, Oreg., USA).

[3] = system: T-cell clones; experiment: Recovery of responsiveness to antigen after drug removal; assay type: cell-based; settings: T-cell clones incubated in 50 nM dasatinib for 24 hours; data not shown
[4] = system: T-cells; settings: cited from earlier work
[5] = system: CTL lines (Melan-A/Mart-1 26-35 and influenza matrix M1 58-66); experiment: Cognate tetramer staining of HLA A2-restricted CTL lines expanded from PBMC; assay type: cell-based, human; settings: 50 nM dasatinib
[6] = system: antigen-specific CD8+ T-cells in PBMC; experiment: pMHCI tetramer staining of PBMC directly ex vivo; assay type: cell-based, human
[7] = system: naïve murine F5 TCR CTL; experiment: H2-Db/[…] tetramer staining of F5 TCR transgenic splenocytes; assay type: cell-based, mouse; settings: 50 nM dasatinib 30 minutes
Description: C. […] Samples were washed with PBS before flow cytometric analysis.

[8] = Shelf-life of working solution; assay type: physicochemical; settings: 100 nM in PBS
Description: Biological activity was tested in a cell death titration assay on BA/F3 bcr-abl cells as described previously (Magnusson et al., 2002). […] The 1 mM DMSO stock was diluted 1/10,000 in PBS on the day of experimentation to achieve a working solution of 100 nM; subsequent ½ dilution yielded a final concentration of 50 nM in cellular assays unless stated otherwise. The 100 nM working solution was always made up on the day of experimentation as the shelf-life of this solution is short (˜days). Staurosporine (Biomol), Lck inhibitor II (Calbiochem), genestein (calbiochem), herbimycin A (Calbiochem), PP2 (Calbiochem) and PP3 (Calbiochem) were dissolved and stored at −20° C. in DMSO. PKIs were dissolved in PBS prior to use and tested at concentrations of 1 nM, 3 nM, 5 nM, 10 nM, 20 nM, 50 nM, 100 nM, 250 nM, 500 nM and 1 μM.

[9] = system: ILA1 CTL; experiment: TCR and CD8 expression levels at the CTL cell surface; assay type: cell-based, human; settings: 50 nM dasatinib 37° C.
[10] = system: HLA DR*0101-restricted CD4+ T-cell clone C6; settings: 50 nM dasatinib 30 minutes
[11] = system: ILA1 CTL; experiment: pMHCI tetramer on-rate experiment; settings: dasatinib+tetramer; 50 nM 30 minutes 37° C.; HLA A2/hTERT540-548 tetramer
[12] = system: Mel13 CTL; experiment: Antigen-induced TCR downregulation; settings: 50 nM dasatinib; peptide-pulsed C1R-A2 B cells, 4 hours
[13] = biological target: IE6 TCR (on CTL clone IE6)
[14] = biological target: Short term line

Compound: CC(C)(C)n1nc(-c2ccc(Cl)cc2)c2c(N)ncnc21 [PP2]
- enhancement of tetramer staining after PKI pre-incubation [1]: moderate increase

Compound: Nc1ncnc2c1cnn2-c1ccccc1 [PP3]
- enhancement of tetramer staining after PKI pre-incubation [1]: no significant enhancement

Compound: Cc1nc(Nc2ncc(C(=O)Nc3c(C)cccc3Cl)s2)cc(N2CCN(CCO)CC2)n1 [dasatinib, N-(2-chloro-6-methyl-phenyl)-2-(6-(4-(2-hydroxyethyl)-piperazin-1-yl)-2-methylpyrimidin-4-ylamino)thiazole-5-carboxamide]
- frequency of GrViD-positive dead cells within the tetramer-positive population [2]: always lower; also recorded: reduced
- increase in pMHCI tetramer staining [1]: 60%
- increase in pMHCI tetramer staining intensity [1]: 89%
- time to regain responsiveness to antigen after drug removal [3]: ≤ 1 h
- concentrations not toxic to T-cells in the short term [4]: < 100 nM
- increase in fluorescence intensity of T-cells that bound tetramer weakly [5]: > 20 fold
- increase in staining intensity of all cognate CD8+ T-cells [5]: at least 2 fold
- pMHCI staining intensity and percentage of antigen-specific CD8+ T-cells [6]: substantial increase
- pMHCI tetramer staining of naïve murine F5 TCR CTL directly ex vivo [7]: enhanced
- shelf-life of 100 nM working solution [8]: short
- time until significant increases in TCR and CD8 levels [9]: > 30 min
- pMHCII tetramer staining of CD4+ T-cell clone [10]: enhanced
- tetramer on-rate, fast rate [11]: 0.42 min⁻¹
- tetramer on-rate, slow rate [11]: 0.06 min⁻¹
- antigen-induced TCR downregulation from the CTL surface [12]: block antigen-induced TCR downregulation

Compound: O=c1c(-c2ccc(O)cc2)coc2cc(O)cc(O)c12 [genestein]
- enhancement of tetramer staining after PKI pre-incubation [1]: no significant enhancement

Compound: CO[C@H]1[C@@H](OC)C[C@H](C)[C@@H](OC)C2=CC(=O)C=C(NC(=O)/C(C)=C/C=C\[C@H](OC)[C@@H](OC(N)=O)/C(C)=C/[C@@H]1C)C2=O [herbimycin, herbimycin A]
- enhancement of tetramer staining after PKI pre-incubation [1]: no significant enhancement

Compound: CN[C@@H]1C[C@H]2O[C@@](C)([C@@H]1OC)n1c3ccccc3c3c4c(c5c6ccccc6n2c5c31)C(=O)NC4 [staurosporine]
- enhancement of tetramer staining after PKI pre-incubation [1]: no significant enhancement

Compound: HLA A2 presenting PPI15-24 peptide on pulsed target cells (from UniProt P61769 21-119) (peptide-MHC)
- % TNFα-positive cells (intracellular cytokine staining, TNF-APC against SSC-Height, 6 h with PPI peptide) [13]: 30.9%

Compound: HLA A2/PPI15-24 tetramer (from UniProt P61769 21-119) (peptide-MHC)
- MFI [14]: 217 and 347

— US9404916B2, “Use of a protein kinase inhibitor to detect immune cells, such as T cells” (University College Cardiff Consultants Limited, priority 2008, dated 2016)
